Data taken from patent publication US11459318B2, “Pesticidally active pyrrole derivatives” (Syngenta Participations AG, priority 2017, dated 2022).

What was measured:
Type in all cases: in vivo
[1] = test system: Diabrotica balteata (Corn root worm); experiment: Diabrotica balteata (Corn root worm), maize sprouts sprayed, L2 larvae mortality; conditions: 96 h, application rate of 200 ppm, L2 larvae on maize sprouts, assessed 4 days after infestation, read-out: control (mortality)
Procedure: Diabrotica balteata (Corn root worm):
Maize sprouts placed onto an agar layer in 24-well microtiter plates were treated with aqueous test solutions prepared from 10,000 ppm DMSO stock solutions by spraying. After drying, the plates were infested with L2 larvae (6 to 10 per well). The samples were assessed for mortality 4 days after infestation.

[2] = test system: Euschistus heros (Neotropical Brown Stink Bug); experiment: Euschistus heros (Neotropical Brown Stink Bug): Feeding/contact activity; conditions: 120 h, application rate of 200 ppm, N2 nymphs on soybean leaves, assessed 5 days after infestation, read-out: control (mortality)
Procedure: Euschistus heros (Neotropical Brown Stink Bug): Feeding/contact activity Soybean leaves on agar in 24-well microtiter plates were sprayed with aqueous test solutions prepared from 10,000 ppm DMSO stock solutions. After drying the leaves were infested with N2 nymphs. The samples were assessed for mortality 5 days after infestation.

[3] = test system: Myzus persicae (Green peach aphid); experiment: Myzus persicae (Green peach aphid): Feeding/Contact activity; conditions: foliar, 144 h, application rate of 200 ppm, aphid population of mixed ages on sunflower leaf discs, assessed 6 days after infestation, read-out: control (mortality)
Procedure: Myzus persicae (Green peach aphid): Feeding/Contact activity Sunflower leaf discs were placed onto agar in a 24-well microtiter plate and sprayed with aqueous test solutions prepared from 10,000 ppm DMSO stock solutions. After drying, the leaf discs were infested with an aphid population of mixed ages. The samples were assessed for mortality 6 days after infestation.

[4] = test system: Plutella xylostella (Diamond back moth); experiment: Plutella xylostella (Diamond back moth): Feeding/contact activity; conditions: 120 h, application rate of 200 ppm, L2 larvae on artificial diet, assessed 5 days after infestation, read-out: control (mortality)
Procedure: Plutella xylostella (Diamond back moth): Feeding/contact activity
24-well microtiter plates with artificial diet were treated with aqueous test solutions prepared from 10,000 ppm DMSO stock solutions by pipetting. After drying, the plates were infested with L2 larvae (10 to 15 per well). The samples were assessed for mortality 5 days after infestation.

[5] = test system: Spodoptera littoralis (Egyptian cotton leaf worm); experiment: Spodoptera littoralis (Egyptian cotton leaf worm): Feeding/contact activity; conditions: foliar, 72 h, application rate of 200 ppm, L1 larvae on cotton leaf discs, assessed 3 days after infestation, read-out: control (mortality)
Procedure: Spodoptera littoralis (Egyptian cotton leaf worm): Feeding/contact activity Cotton leaf discs were placed onto agar in 24-well microtiter plates and sprayed with aqueous test solutions prepared from 10,000 ppm DMSO stock solutions. After drying the leaf discs were infested with five L1 larvae. The samples were assessed for mortality 3 days after infestation.

[6] = test system: Tetranychus urticae (Two-spotted spider mite); experiment: Tetranychus urticae (Two-spotted spider mite): Feeding/contact activity; conditions: foliar, 192 h, application rate of 200 ppm, mite population of mixed ages (mobile stages) on bean leaf discs, assessed 8 days after infestation, read-out: control (mortality)
Procedure: Tetranychus urticae (Two-spotted spider mite): Feeding/contact activity
Bean leaf discs on agar in 24-well microtiter plates were sprayed with aqueous test solutions prepared from 10,000 ppm DMSO stock solutions. After drying the leaf discs were infested with a mite population of mixed ages. The samples were assessed for mortality on mixed population (mobile stages) 8 days after infestation.

[7] = test system: Thrips tabaci (Onion Thrips); experiment: Thrips tabaci (Onion Thrips): Feeding/Contact activity; conditions: foliar, 144 h, application rate of 200 ppm, thrips population of mixed ages on sunflower leaf discs, assessed 6 days after infestation, read-out: control (mortality)
Procedure: Thrips tabaci (Onion Thrips): Feeding/Contact activity
Sunflower leaf discs were placed on agar in 24-well microtiter plates and sprayed with aqueous test solutions prepared from 10,000 ppm DMSO stock solutions. After drying the leaf discs were infested with a thrips population of mixed ages. The samples were assessed for mortality 6 days after infestation.

Measured: mortality at 200 ppm

N#CC1(NC(=O)c2cc(-c3cnn(-c4c(Br)cc(C(F)(C(F)(F)F)C(F)(F)F)n4C4CC4)c3)ccc2Cl)CC1 [Compound 42, 5-[1-[3-bromo-1-cyclopropyl-5-[1,2,2,2-tetrafluoro-1-(trifluoromethyl)ethyl]pyrrol-2-yl]pyrazol-4-yl]-2-chloro-N-(1-cyanocyclopropyl)benzamide]
≥ 80%: all assays above
